Data on eight molecules can be found in patent US8729056B2, “Preventive and/or therapeutic agent of hand-foot syndrome” (Ono Pharmaceutical Co., Ltd., priority 2010, dated 2014).

For data set [1] the following is noted: sweat from patients with Hand-Foot Syndrome administered the drug; cited from earlier work.
In data set [2] the test system is Hand-Foot Syndrome caused by sorafenib tosilate administration. Nature of the data set: Cases 3-6: effect of anticholinergic drugs on Hand-Foot Syndrome caused by sorafenib tosilate in kidney cancer patients. It counts as in vivo, human. An excerpt:
(§1) In the present invention, the preventive and/or treatment effect of the anticholinergic drug against Hand-Foot Syndrome can be evaluated, for example, by the criteria of Hand-Foot Syndrome in Table 1, Table 2, and Table 3 as shown below. Table 1 is the criteria proposed by Blum, and appeared on page 485-493 in volume 17 of Journal Clinical Oncology published in 1999. Grade 0 is not referred to in this table, but it is understood as grade 0 if no symptom is observed. Table 2 is the National Cancer Institute-Common Toxicity Criteria Version 2.0 (NCI-CTC v2.0), and Table 3 is the National Cancer Institute-Common Terminology Criteria for Adverse Events Version 3.0 (NCI-CTCAE v3.0). Grade 0 is also not referred to in Table 3, but it is understood as grade 0 if no symptom is observed.
We examined the effect of imidafenacin in a patient with kidney cancer who developed Hand-Foot Syndrome caused by sorafenib tosilate administration (sorafenib 800 mg/day).
We examined the effect of imidafenacin in a patient with kidney cancer who developed Hand-Foot Syndrome caused by sorafenib tosilate administration.
From this point, Imidafenacin 0.1 mg was orally administered to the patient twice a day in addition to the urea ointment.
We examined the effect of solifenacin succinate in a patient with kidney cancer who developed Hand-Foot Syndrome caused by sorafenib tosilate administration (sorafenib 800 mg/day).
We examined the effect of tolterodine tartrate in a patient with kidney cancer who developed Hand-Foot Syndrome caused by sorafenib tosilate administration.

The conditions of data set [3]: WO1999/58478; cited from earlier work.
For data set [4], the system named is Hand-Foot Syndrome caused by sunitinib malate administration. Description: Case 2: effect of imidafenacin on Hand-Foot Syndrome caused by sunitinib malate in a kidney cancer patient. It counts as in vivo, human. The settings on record: imidafenacin combined with urea ointment, heparinoid ointment and clobetasol propionate ointment, after eight days of such treatment.
Excerpt: as §1

In another data set the test system is Hand-Foot Syndrome. Conditions: patients with highest Hand-Foot Syndrome grade of 3; on average; Phase 2 clinical study in Japan; cited from earlier work.
For data set [5] the following is noted: compared with tolterodine; Pharmacology and Toxicology Vol. 81, 1997; cited from earlier work.

SMILES strings stand for the structures.

For the molecule `COc1cccc2c1C(=O)c1c(O)c3c(c(O)c1C2=O)C[C@@](O)(C(=O)CO)C[C@@H]3O[C@H]1C[C@H](N)[C@H](O)[C@H](C)O1` [doxorubicin], the “drug substance in sweat” value in data set [1] is “detected”.
In the case of `O=C(O[C@H]1CN2CCC1CC2)N1CCc2ccccc2[C@@H]1c1ccccc1` [solifenacin succinate, (3R)-1-Azabicyclo[2.2.2]oct-3-yl(1S)-1-phenyl-3,4-dihydroisoquinoline-2(1H)-carboxylate], in data set [2] (case 5, continuous administration of solifenacin succinate after full recovery), the “recurrence of Hand-Foot Syndrome” value is “prevented”. Further, the “recovery from Hand-Foot Syndrome” value in data set [2] (case 5, solifenacin succinate 5 mg orally once a day, started at grade 2, 28 days after beginning) is listed as “full recovery”.
In the case of `CC(C)C(=O)Oc1ccc(CO)cc1[C@H](CCN(C(C)C)C(C)C)c1ccccc1` [Fesoterodine, 2-[(1R)-3-(dipropan-2-ylamino)-1-phenylpropyl]-4-(hydroxymethyl)phenyl 2-methylpropanoate], the “metabolism after oral administration” value in data set [3] is recorded as “rapidly is metabolized to the 5-hydroxymethyl derivative”.
Take `Cc1nccn1CCC(C(N)=O)(c1ccccc1)c1ccccc1` [imidafenacin, 4-(2-Methyl-1H-imidazole-1-yl)-2,2-diphenylbutanamide]: the “recovery from Hand-Foot Syndrome” value is given as “full recovery” in data set [4] and “full recovery” in data set [2] (case 3, imidafenacin continued in combination with heparinoid cream, after 22 days). In data set [2] (case 3, after full recovery, continuous administration of imidafenacin and the moisturizing agent), the “recurrence of Hand-Foot Syndrome” value is “prevented”.
For the molecule `CNC(=O)c1cc(Oc2ccc(NC(=O)Nc3ccc(Cl)c(C(F)(F)F)c3)cc2)ccn1` [sorafenib tosilate], the “drug substance in sweat” value in data set [1] is given as “not detected”.
As for `CCCCCOC(=O)Nc1nc(=O)n([C@@H]2O[C@H](C)[C@@H](O)[C@H]2O)cc1F` [capecitabine], the “period for recovery of Hand-Foot Syndrome after interruption” value in the data set on Hand-Foot Syndrome is reported as “about two to three”.
As to `Cc1ncc(CO)c(CO)c1O.Cl` [pyridoxine hydrochloride], the “change of Hand-Foot Syndrome” value in data set [2] (case 6, grade 3, urea ointment in addition to pyridoxine hydrochloride, sorafenib 800 mg/day, without tolterodine tartrate) was “no improvements”.
With `Cc1nc(-c2ccccc2)nc(SCc2ccc(Cl)cc2)c1CO` [5-hydroxymethyl derivative], the anticholinergic activity entry in data set [5] is reported as “equivalent to tolterodine”.
